Laboratory results from ChEMBL document CHEMBL1201862, “PubChem BioAssay data set” (2004).
Values belong to the molecule of their own block, whether it stands above or below them. Active and inactive are the calls of the source.

Assays:
[1] = target: T1, Oxysterols receptor LXR-beta (Homo sapiens, UniProt P55055); assay type: functional, cell-based;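 note: Cell-based luminescence dose-response assay of agonist activity at LXR, run as a confirmatory counterscreen to a daf-12 agonist screen; HEK293 cells with Gal4-LXR fusion and GAL4-driven luciferase reporter; agonist potency from rising luciferase signal of a Gal4-LXR reporter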
T1 sequence (P55055 whole entry): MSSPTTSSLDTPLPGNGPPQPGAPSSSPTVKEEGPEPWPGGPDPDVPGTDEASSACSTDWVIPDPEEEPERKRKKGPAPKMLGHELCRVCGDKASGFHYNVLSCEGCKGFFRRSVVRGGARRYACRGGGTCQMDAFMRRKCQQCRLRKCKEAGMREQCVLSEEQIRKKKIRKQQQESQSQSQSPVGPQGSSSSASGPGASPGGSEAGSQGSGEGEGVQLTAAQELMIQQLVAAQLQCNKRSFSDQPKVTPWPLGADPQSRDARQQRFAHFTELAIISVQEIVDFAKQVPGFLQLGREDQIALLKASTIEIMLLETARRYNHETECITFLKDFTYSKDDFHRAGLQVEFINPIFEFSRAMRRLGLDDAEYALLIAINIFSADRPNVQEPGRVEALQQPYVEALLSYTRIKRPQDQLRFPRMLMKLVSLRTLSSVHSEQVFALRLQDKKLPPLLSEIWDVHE

[2] = Luminescence-based cell-based high throughput dose response assay to identify activators of the DAF-12 from the parasite S. stercoralis (ssDAF-12).; assay type: functional
[3] = inhibitors of PGC1a acetylation in cells, dose response, cell-based, cherry-picked samples (AID 720514); assay type: functional;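 note: potency may reflect raised or lowered acetylation signal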
fMet-Leu-Phe receptor = target: T2, fMet-Leu-Phe receptor (Homo sapiens, UniProt P21462); assay: FPR ligands, dose response (AID 519); assay type: functional
T2 sequence (P21462 whole entry): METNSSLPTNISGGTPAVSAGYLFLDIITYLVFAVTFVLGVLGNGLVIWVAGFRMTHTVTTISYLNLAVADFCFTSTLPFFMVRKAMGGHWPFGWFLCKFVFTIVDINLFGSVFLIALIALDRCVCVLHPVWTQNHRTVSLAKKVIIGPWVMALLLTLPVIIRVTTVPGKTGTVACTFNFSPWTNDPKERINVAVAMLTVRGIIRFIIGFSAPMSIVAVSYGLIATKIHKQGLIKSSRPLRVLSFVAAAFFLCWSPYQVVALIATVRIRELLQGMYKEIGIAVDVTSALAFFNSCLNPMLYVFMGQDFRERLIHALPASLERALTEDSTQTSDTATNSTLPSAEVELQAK

[4] = HepG2 cell cytotoxicity, dose response, cytotoxicity control, plate reader, cherry-pick, antagonist series (AID 743416); assay type: functional, cell-based
[5] = target: T3, Microphthalmia-associated transcription factor (Homo sapiens, UniProt O75030); assay: TRPM1 promoter luciferase signal decrease, dose response, MITF inhibitor project, cell-based, SK-MEL-5, cherry-picked, set 3 (AID 493073); assay type: functional
T3 sequence (O75030 whole entry): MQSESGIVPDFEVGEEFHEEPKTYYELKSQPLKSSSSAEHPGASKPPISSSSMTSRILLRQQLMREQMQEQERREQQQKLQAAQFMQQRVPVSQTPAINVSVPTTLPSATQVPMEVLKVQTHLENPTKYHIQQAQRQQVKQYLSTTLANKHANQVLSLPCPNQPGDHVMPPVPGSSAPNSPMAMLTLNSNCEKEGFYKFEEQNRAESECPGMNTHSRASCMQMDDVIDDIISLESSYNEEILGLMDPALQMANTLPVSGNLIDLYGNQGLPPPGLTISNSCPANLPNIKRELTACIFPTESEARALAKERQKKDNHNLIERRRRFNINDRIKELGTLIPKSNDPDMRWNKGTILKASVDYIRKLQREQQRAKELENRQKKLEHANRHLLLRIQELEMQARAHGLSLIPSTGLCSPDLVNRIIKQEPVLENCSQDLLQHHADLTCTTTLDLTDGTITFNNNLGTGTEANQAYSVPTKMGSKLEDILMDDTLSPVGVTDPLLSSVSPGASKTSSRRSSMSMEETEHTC

[6] = A549 cell cytotoxicity, dose response, cytotoxicity control, plate reader, cherry-pick, antagonist series (AID 743412); assay type: functional, cell-based
[7] = LGR2 antagonists, dose response, cell-based, HEK293, CRE-luciferase reporter, cherry pick, set 2 (AID 743343); assay type: functional;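 note: transfected cells were stimulated with diluted bursicon conditioned medium after compound addition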
[8] = MC4R antagonists, dose response, counter-screen for LGR2 antagonist project, cell-based, plate reader, cherry pick (AID 743444); assay type: functional;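 note: transfected HEK 293 cells stimulated with alpha-MSH peptide; potency of inhibitors of the alpha-MSH evoked signal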
[9] = HEK293 cell cytotoxicity, dose response, cytotoxicity control, plate reader, cherry-picked samples (AID 743446); assay type: functional, cell-based
[10] = target: T4, Calpain-2 catalytic subunit (Sus scrofa, UniProt P43367); assay: pig calpain II inhibitor potency, dose response, biochemical, fluorogenic peptide substrate (AID 1420); assay type: functional
T4 sequence (P43367 whole entry): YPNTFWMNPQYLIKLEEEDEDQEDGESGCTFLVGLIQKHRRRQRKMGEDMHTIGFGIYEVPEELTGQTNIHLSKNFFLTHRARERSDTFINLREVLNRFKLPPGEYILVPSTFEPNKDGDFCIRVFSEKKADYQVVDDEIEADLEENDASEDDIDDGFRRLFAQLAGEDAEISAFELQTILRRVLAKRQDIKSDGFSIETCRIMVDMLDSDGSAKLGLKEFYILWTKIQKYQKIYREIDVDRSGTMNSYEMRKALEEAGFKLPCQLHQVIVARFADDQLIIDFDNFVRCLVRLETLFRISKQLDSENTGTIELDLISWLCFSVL

Cytochrome P450 2C9 = Cytochrome P450 2C9 (Homo sapiens, UniProt P11712)
Melanocortin receptor 4 = Melanocortin receptor 4 (Homo sapiens, UniProt P32245); assay type: functional, cell-based;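 note: Cell-based assay with luminescence read-out, confirmatory dose-response testing for agonist activity of biased ligands at MC4R; human U2OS cells with tagged receptor and beta-arrestin; potency of agonists that increase receptor coupling to beta-arrestin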
Cytochrome P450 1A2 = target: T5, Cytochrome P450 1A2 (Homo sapiens, UniProt P05177);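 note: PubChem cytochrome P450 panel assay, CYP1A2 panel member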
T5 sequence (P05177 whole entry): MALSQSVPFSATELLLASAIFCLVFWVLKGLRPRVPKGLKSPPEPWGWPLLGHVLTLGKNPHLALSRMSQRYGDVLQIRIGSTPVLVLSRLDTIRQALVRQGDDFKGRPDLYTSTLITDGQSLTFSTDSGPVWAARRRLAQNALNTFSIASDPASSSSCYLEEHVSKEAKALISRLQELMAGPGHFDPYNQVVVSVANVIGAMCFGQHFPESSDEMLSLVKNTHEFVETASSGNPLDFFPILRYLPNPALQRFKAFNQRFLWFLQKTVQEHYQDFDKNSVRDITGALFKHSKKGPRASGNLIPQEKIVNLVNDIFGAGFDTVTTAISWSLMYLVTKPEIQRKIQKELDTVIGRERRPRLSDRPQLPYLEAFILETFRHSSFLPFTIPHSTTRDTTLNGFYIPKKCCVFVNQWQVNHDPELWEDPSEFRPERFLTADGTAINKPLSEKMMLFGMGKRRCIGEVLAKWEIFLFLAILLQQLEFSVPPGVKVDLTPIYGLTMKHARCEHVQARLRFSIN

[11] = HEK293T cytotoxicity, dose response, cytotoxicity control for miR-122 modulator project, cell-based, activator set, cherry-pick (AID 720690); assay type: functional;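 note: HEK293T human cells scored for general mammalian cytotoxicity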
[12] = target: Luciferin 4-monooxygenase (Photinus pyralis, UniProt P08659); assay: firefly luciferase enzyme inhibitors, dose response, biochemical, luminescence (AID 1891)
[13] = Luminescence Cell-Based Dose Confirmation HTS to Identify Inhibitors of Platelet Dense Granule Release. [Related pubchem assays: 1663 (Primary HTS), 1678 (Summary of Project)]; assay type: functional
[14] = miR-122 activators in hepatoma reporter cells, dose response, cell-based, Huh7 psiCHECK-miR122, Renilla luciferase, cherry-picked (AID 651956); assay type: functional;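 note: huh7 hepatoma cells stably carrying a psiCHECK-2 miR-122 sensor plasmid; renilla luciferase signal reporting endogenous miR-122 activity after 48 h compound exposure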
[15] = HepG2 cell cytotoxicity, dose response, cytotoxicity control, cherry-picked samples (AID 1159577); assay type: functional, cell-based
[16] = P. falciparum Dd2 growth inhibitors, dose response, SYBR Green, cherry-picked samples (AID 1159567); assay type: functional, cell-based
[17] = P. falciparum 3D7-ScDHODH growth inhibitors, dose response, SYBR Green, dry powder samples (AID 1159570); assay type: functional, cell-based;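 note: parasite growth measured after 72 hours of compound exposure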
[18] = HepG2 cell cytotoxicity, dose response, cytotoxicity control, plate reader, dry powder samples (AID 1159569); assay type: functional, cell-based;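 note: inhibitor potency with signal falling toward the positive control level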
[19] = P. falciparum ATP4 D1247Y mutant growth inhibitors, dose response, NITD609-resistant line, SYBR Green, dry powder (AID 1159571); assay type: functional, cell-based;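 note: parasites synchronized at ring stage by sorbitol before testing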
[20] = P. falciparum Dd2 growth inhibitors, dose response, SYBR Green, dry powder samples (AID 1159566); assay type: functional, cell-based;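 note: potency for growth inhibition with lower SYBR green DNA signal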

Sequence of Luciferin 4-monooxygenase (P08659 whole entry): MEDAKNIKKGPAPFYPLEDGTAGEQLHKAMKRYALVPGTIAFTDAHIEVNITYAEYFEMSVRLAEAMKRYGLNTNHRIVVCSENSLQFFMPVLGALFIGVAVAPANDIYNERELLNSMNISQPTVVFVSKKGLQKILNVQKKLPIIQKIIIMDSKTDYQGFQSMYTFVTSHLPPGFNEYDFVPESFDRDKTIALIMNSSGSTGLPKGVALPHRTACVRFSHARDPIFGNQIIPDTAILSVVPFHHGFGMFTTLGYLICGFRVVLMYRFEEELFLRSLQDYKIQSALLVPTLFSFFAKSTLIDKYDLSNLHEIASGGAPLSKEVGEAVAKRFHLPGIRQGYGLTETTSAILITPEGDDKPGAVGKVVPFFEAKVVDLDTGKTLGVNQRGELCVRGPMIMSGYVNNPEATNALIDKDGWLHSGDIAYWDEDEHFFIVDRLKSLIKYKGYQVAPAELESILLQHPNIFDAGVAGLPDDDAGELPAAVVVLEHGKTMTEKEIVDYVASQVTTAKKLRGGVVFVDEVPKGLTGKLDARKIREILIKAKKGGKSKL
Sequence of Melanocortin receptor 4 (P32245 whole entry): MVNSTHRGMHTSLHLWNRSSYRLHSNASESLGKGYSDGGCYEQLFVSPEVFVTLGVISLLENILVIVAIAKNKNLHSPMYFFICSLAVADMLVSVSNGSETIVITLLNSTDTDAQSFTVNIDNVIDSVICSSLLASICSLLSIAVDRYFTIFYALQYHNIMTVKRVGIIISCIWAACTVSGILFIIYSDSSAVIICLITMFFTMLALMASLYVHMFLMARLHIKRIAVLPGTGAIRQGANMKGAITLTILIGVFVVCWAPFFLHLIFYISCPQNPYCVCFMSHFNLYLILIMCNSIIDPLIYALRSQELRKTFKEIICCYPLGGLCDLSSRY
Sequence of Cytochrome P450 2C9 (P11712 whole entry): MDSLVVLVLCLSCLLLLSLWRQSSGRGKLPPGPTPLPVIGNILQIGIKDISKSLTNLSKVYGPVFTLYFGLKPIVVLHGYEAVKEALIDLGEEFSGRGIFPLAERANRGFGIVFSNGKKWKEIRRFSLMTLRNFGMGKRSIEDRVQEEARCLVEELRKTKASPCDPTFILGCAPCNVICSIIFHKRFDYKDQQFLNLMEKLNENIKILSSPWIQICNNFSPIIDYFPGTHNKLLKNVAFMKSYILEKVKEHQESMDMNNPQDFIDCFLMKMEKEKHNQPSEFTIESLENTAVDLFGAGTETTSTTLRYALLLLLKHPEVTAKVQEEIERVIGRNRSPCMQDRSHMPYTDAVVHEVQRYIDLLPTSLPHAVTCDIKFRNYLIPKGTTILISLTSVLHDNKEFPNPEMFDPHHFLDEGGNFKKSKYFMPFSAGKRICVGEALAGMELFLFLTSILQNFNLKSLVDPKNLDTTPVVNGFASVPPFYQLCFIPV

SMILES: Oc1ccccc1-c1cc(-c2ccccc2)no1
- EC50 (cells): > 67.5 µM (inactive)
- EC50 [1]: > 67.5 µM (inactive)
- IC50 [2]: > 67.5 µM (inactive)

SMILES: CN(C)CCCN(C(=O)CCOc1ccccc1)c1nc2ccc(F)cc2s1
- AC50 [3]: 12.8 µM (active)

- Ki (fMet-Leu-Phe receptor): 57.5 µM (inactive)
SMILES: COc1cc(C2C(C(=O)c3ccc4c(c3)CC(C)O4)=C(O)C(=O)N2CCCn2ccnc2)ccc1O (centres undefined)

SMILES: Cc1cc(C)n(-c2ccc(C(=O)Nc3ccc(C)c(S(=O)(=O)N4CCOCC4)c3)cc2)n1
- AC50 [4]: 33.8 µM (active)
- AC50 [5]: 4.54 µM (active)
- AC50 [6]: > 52 µM (inactive)
- AC50 [7]: 18.1 µM (active)
- AC50 [8]: 13.4 µM (active)
- AC50 [9]: 25.4 µM (active)

- IC50 [10]: > 50 µM (not active)
- AC50 (Cytochrome P450 2C9): 3.55 µM (inconclusive)
- EC50 (Melanocortin receptor 4): > 89.2 µM (inactive)
- AC50 (Cytochrome P450 1A2): 15.8 µM (inconclusive)
SMILES: CCOc1ccc(NC(=S)NC(=O)/C=C/c2ccc(C)cc2)c([N+](=O)[O-])c1

- Ki (fMet-Leu-Phe receptor): > 66.7 µM (inactive)
SMILES: CCOC(=O)c1c(NC(=O)c2cc(C3CC3)on2)sc2c1CCCC2

SMILES: CC(=O)n1nc(-c2ccccc2)cc1-c1ccccc1
- EC50 (cells): > 67.5 µM (inactive)
- EC50 [1]: > 67.5 µM (inactive)

SMILES: COc1ccccc1CNc1nc(Nc2ccccc2Cl)c2sccc2n1
- AC50 [11]: 2.71 µM (active)

SMILES: Cc1ccccc1/N=C/C1=C(O)c2ccccc2C1=O
- AC50 [4]: > 52 µM (inactive)
- EC50 [12]: 1.02 µM (active)
- AC50 [6]: > 52 µM (inactive)
- EC50 [13]: 3.79 µM (active)
- AC50 [7]: 1.03 µM (active)
- AC50 [8]: 1.67 µM (active)

SMILES: C[C@@H]1CN([C@H](C)CO)S(=O)(=O)c2ccc(C#Cc3ccccc3F)cc2O[C@@H]1CN(C)C(=O)c1ccc2c(c1)OCO2
- AC50 [14]: 4.28 µM (active)
- AC50 [11]: 20.6 µM (active)

- Ki (fMet-Leu-Phe receptor): 36.4 µM (inactive)
SMILES: O=C(NCc1cccnc1)C1c2ccccc2C(=O)N1C1CCCCCC1 (centres undefined)

SMILES: C[C@@H]1CN([C@@H](C)CO)S(=O)(=O)c2ccc(C#Cc3ccncc3)cc2O[C@@H]1CN(C)C(=O)C1CCOCC1
- AC50 [14]: 0.466 µM (active)

SMILES: CN1C(=O)c2cc(NC(=O)c3ccc(Cl)cc3)ccc2OC[C@@H]2O[C@H](CC(=O)NCc3cccc(F)c3)CC[C@@H]21
- AC50 [11]: 26.6 µM (active)

SMILES: N#C[C@H]1[C@H](c2ccccc2C2=CCCCC2)[C@@H](CO)N1S(=O)(=O)c1ccccc1
- AC50 [4]: 4.61 µM (active)
- AC50 [6]: 7.94 µM (active)
- AC50 [7]: 7.76 µM (active)
- AC50 [8]: 2.67 µM (active)
- AC50 [9]: 13.9 µM (active)

SMILES: CCC(=O)N(C)C[C@@H]1Oc2ncc(C#CCc3ccccc3)cc2C(=O)N([C@H](C)CO)C[C@@H]1C
- AC50 [3]: 16.4 µM (active)

SMILES: Cc1ccc(-c2ccc([C@H]3[C@@H]4CN(C(=O)Nc5ccc(C(F)(F)F)cc5)C[C@H]3N4)cc2)cc1
- AC50 [15]: 13.1 µM (active)
- AC50 [3]: 9.39 µM (active)
- AC50 [16]: 3.4 µM (active)

SMILES: C(=C\c1ccc([C@@H]2[C@@H]3CN(Cc4cccnc4)C[C@H]2N3)cc1)/c1ccccc1
- AC50 [15]: 10.8 µM (active)
- AC50 [16]: < 0.3 µM (active)

SMILES: COc1ccc2c3c([nH]c2c1)[C@H](CO)N(Cc1ccc(Cl)cc1)CC31CCN(Cc2nccs2)CC1
- AC50 [17]: 1.22 µM (active)
- AC50 [15]: > 39 µM (inactive)
- AC50 [18]: 25.8 µM (active)
- AC50 [19]: 1.11 µM (active)
- AC50 [20]: 0.781 µM (active)
- AC50 [16]: 1.22 µM (active)

SMILES: O=C(Nc1ccccc1F)N1CCCCN2[C@@H](CO)[C@H](c3ccc(C#Cc4ccccc4)cc3)[C@@H]2C1
- AC50 [15]: 10.3 µM (active)
- AC50 [16]: 0.392 µM (active)

SMILES: O=C(C1CCCC1)N1CC(=O)N2[C@H](C1)[C@@H](c1ccc(-c3cccnc3)cc1)[C@@H]2CO
- AC50 [17]: 2.97 µM (active)
- AC50 [18]: > 100 µM (inactive)
- AC50 [19]: 1.52 µM (active)
- AC50 [20]: 0.746 µM (active)
- AC50 [16]: 1.06 µM (active)

SMILES: CCCN(C)C[C@@H]1Oc2cc(C#Cc3cccnc3)ccc2S(=O)(=O)N([C@H](C)CO)C[C@@H]1C
- AC50 [17]: 2.35 µM (active)
- AC50 [18]: > 100 µM (inactive)
- AC50 [19]: 1.03 µM (active)
- AC50 [20]: 1.45 µM (active)
- AC50 [16]: 2.09 µM (active)
